Test results reported in patent US11390580B2, “Anti-fungals targeting the synthesis of fungal shingolipids” (THE RESEARCH FOUNDATION FOR THE STATE UNIVERSITY OF NEW YORK, priority 2014, dated 2022).
Converted amounts (≈) assume the structure as drawn. “And” between values parts separate entries of the source, which are not always exact repeats. Equal entries are not always repeated. Where two headings read alike, the source gives them in different places.

Assays:
Gcs1 = Gcs1 (Cryptococcus neoformans, UniProt J9W453); experiment: In vitro Gcs1 activity in cell lysate
Solubility = format: physicochemical; conditions: at 1 mg/ml concentration
[1] = tested on: synthesis of GlcCer in mammalian (J774) cells; experiment: In vivo labeling with 3H palmitate, TLC of GlcCer; format: cell-based, murine; conditions: 3H palmitate labeling
[2] = tested on: C. neoformans secreted vesicles; experiment: Vesicle secretion measured by vesicular sterols; format: cell-based, Cryptococcus neoformans
Description: WF, white field; NBD-Cer, NBD-ceramide.

[3] = In vitro toxicity, MTT assay; conditions: mouse, J774.16 macrophage cells
Pneumocystis jiroveci = experiment: In vitro testing by ATP content (luciferin-luciferase); conditions: for inhibition at 0.1 µg/mL / inhibition at 1 µg/mL / inhibition at 10 µg/mL / inhibition at 100 µg/mL: read-out: percentage inhibition of ATP
Candida parapsilosis = experiment: In vitro susceptibility testing (MIC); format: cell-based; conditions: for BHBM 24 Hr 50% / BHBM 48 Hr 50%: MIC, FTL strains
Candida krusei = experiment: In vitro susceptibility testing (MIC); format: cell-based; conditions: for BHBM 24 Hr 50% / BHBM 48 Hr 50%: MIC, QC strain
[4] = tested on: intracellular C. neoformans; experiment: Intracellular effect in J774.16 macrophages; format: cell-based, Cryptococcus neoformans; conditions: dose-dependent, particularly after 12 and 24 hours
Protocol: After 2 hours of incubation, about 60-80% of macrophages have at least one C. neoformans cell internalized. At this time, wells were washed to remove extracellular fungal cells and fresh DMEM medium without serum and without mAb 18B7 but containing different concentrations of BHBM was added. […] At selected time points, 0, 6, 12 and 24 hours, extracellular cells were collected by washing and plated onto YPD for CFU counting of extracellular cells. Then, macrophages containing C. neofromans were lysed, collected and serial dilutions were plated onto YPD for CFU counting of intracellular fungal cells.

Sld8 = experiment: In vitro Sld8 activity; format: biochemical, C. neoformans
[5] = tested on: synthesis of GlcCer in C. albicans cells; experiment: GlcCer synthesis in C. albicans; format: cell-based, Candida albicans
Candida glabrata = experiment: In vitro susceptibility testing (MIC); format: cell-based
E. coli DH5α = experiment: Antibacterial activity, LB agar well diffusion; conditions: up to 160 μg/mL, 30° C., 24 hr
Candida albicans = experiment: In vitro susceptibility testing (MIC); format: cell-based
Cryptococcus gattii = experiment: In vitro susceptibility testing (MIC); format: cell-based
[6] = In vivo toxicity in uninfected mice
Pharmacokinetics of BHBM = format: in vivo, mice; conditions: preliminary studies
C. neoformans = experiment: In vitro killing assay (time-kill, CFU); format: cell-based, Cryptococcus neoformans
Protocol: At the illustrated time points, aliquots were taken and diluted and 100 μL was plated onto yeast peptone dextrose (YPD) plates. YPD plates were incubated in a 30° C. incubator and, after 72 hours, colony forming units (CFU) were counted and recorded.

Candida albicans SC-5314 = experiment: Animal studies for candidiasis (intravenous infection); format: in vivo, mice
Protocol: For survival studies, 8-week old CBA/J female mice (Jackson Laboratory) were used. Eight mice per treatment or control group were used. Mice were infected by intravenous inoculation of 100 μL containing 1×10^5 cells of Candida albicans SC-5314 strain. […] Untreated mice, received 100 μL of PBS/0.4% DMSO. Mice were feed ad-libitum and monitored closely for sign of discomfort. At the end of the survival study, tissue burden culture was performed in mice that survived the infection. Mice were sacrificed and their organs were extracted and homogenized in 10 ml sterile PBS using homogenizer. Organ homogenates were diluted 10 times in PBS, and 100 μL was plated on YPD agar plates and incubated at 30° C. for 72 hours for CFU count.

[7] = tested on: synthesis of GlcCer in C. neoformans cells; experiment: In vivo labeling with 3H palmitate, TLC of GlcCer; conditions: 3H palmitate labeling

Chain of Gcs1 (J9W453 whole entry): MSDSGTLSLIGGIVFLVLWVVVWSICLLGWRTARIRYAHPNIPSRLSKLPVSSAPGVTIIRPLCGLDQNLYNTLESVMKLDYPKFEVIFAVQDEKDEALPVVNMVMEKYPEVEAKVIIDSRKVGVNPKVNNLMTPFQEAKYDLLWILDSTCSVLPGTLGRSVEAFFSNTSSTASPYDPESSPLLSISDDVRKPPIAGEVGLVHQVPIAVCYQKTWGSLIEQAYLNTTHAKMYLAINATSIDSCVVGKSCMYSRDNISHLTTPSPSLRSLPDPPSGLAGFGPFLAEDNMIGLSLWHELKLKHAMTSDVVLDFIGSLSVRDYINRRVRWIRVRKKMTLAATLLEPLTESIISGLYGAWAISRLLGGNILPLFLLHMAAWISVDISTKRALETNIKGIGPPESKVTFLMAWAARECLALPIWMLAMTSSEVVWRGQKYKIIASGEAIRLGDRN

With `Cc1ccccc1C(=O)NN=Cc1ccc(O)c(Br)c1` [BHBM, N′-(3-bromo-4-hydroxybenzylidene)-2-methylbenzohydrazide] the “in vitro activity of Gcs1” value (Gcs1) was “does not inhibit”, the DMSO required (Solubility) was 30% and the “inhibition of the synthesis of GlcCer” value [1] was “no significant changes”. The “inhibition of the synthesis of GlcCer” value ([1]; listed as #5271226) was “not in mammalian (J774) cells”, the “secreted vesicles measured by sterol content” value [2] was “marked reductions of secreted vesicles” and the EC50 at 48 h [3] was 50 µg/mL (≈ 150 µM). The IC50 (Pneumocystis jiroveci; 24 h, read-out: IC50, P. jiroveci) was 0.912 µg/mL (≈ 2.74 µM), the inhibition at 0.1 µg/mL (Pneumocystis jiroveci; 24 h) was 16.1% and the inhibition at 1 µg/mL (Pneumocystis jiroveci; 24 h) was 51.5%. It also gave an inhibition at 10 µg/mL (Pneumocystis jiroveci; 24 h) of 97%, an inhibition at 100 µg/mL (Pneumocystis jiroveci; 24 h) of 98.9% and an IC50 (Pneumocystis jiroveci; 48 h, read-out: IC50, P. jiroveci) of 0.159 µg/mL (≈ 0.477 µM). For the same compound, the inhibition at 0.1 µg/mL (Pneumocystis jiroveci; 48 h) was 26.2%, the inhibition at 1 µg/mL (Pneumocystis jiroveci; 48 h) was 92.6% and the inhibition at 10 µg/mL (Pneumocystis jiroveci; 48 h) was 97.8%. For the same compound, the inhibition at 100 µg/mL (Pneumocystis jiroveci; 48 h) was 98.6%, the IC50 (Pneumocystis jiroveci; 72 h, read-out: IC50, P. jiroveci) was 0.074 µg/mL (≈ 0.222 µM) and the inhibition at 0.1 µg/mL (Pneumocystis jiroveci; 72 h) was 39.1%. It also gave an inhibition at 1 µg/mL (Pneumocystis jiroveci; 72 h) of 87.8%, an inhibition at 10 µg/mL (Pneumocystis jiroveci; 72 h) of 94.8% and an inhibition at 100 µg/mL (Pneumocystis jiroveci; 72 h) of 98.1%. For the same compound, the IC50 (Pneumocystis jiroveci; 96 h, read-out: IC50, P. jiroveci) was 0.072 µg/mL (≈ 0.216 µM), the inhibition at 0.1 µg/mL (Pneumocystis jiroveci; 96 h) was 46.2% and the inhibition at 1 µg/mL (Pneumocystis jiroveci; 96 h) was 77%. It also gave an inhibition at 10 µg/mL (Pneumocystis jiroveci; 96 h) of 90.1%, an inhibition at 100 µg/mL (Pneumocystis jiroveci; 96 h) of 98.9% and an IC50 (Pneumocystis jiroveci; read-out: activity class by IC50, P. jiroveci) of 0.011 to 0.099 µg/mL (≈ 0.033 to 0.297 µM). The “in vitro activity” value (Candida parapsilosis) was “not active”, the MIC range (Candida parapsilosis; 3 MDP Lab strains) was greater than 32 µg/mL and the “BHBM 24 Hr 50%” value (Candida parapsilosis) was greater than 16. The “BHBM 48 Hr 50%” value (Candida parapsilosis) was greater than 16, the “BHBM 24 Hr 50%” value (Candida parapsilosis; first listing r7-r78) was greater than 16 and the “BHBM 48 Hr 50%” value (Candida parapsilosis; first listing r7-r78) was greater than 16. The MIC range (Candida parapsilosis; QC, Fungus Testing Lab) was greater than 16 µg/mL, the MIC range (Candida krusei; 1 MDP Lab strain) was 32 µg/mL (≈ 96 µM) and the MIC range (Candida krusei; ATCC 6258, MDP Lab) was 16 µg/mL (≈ 48 µM). For the same compound, the “BHBM 24 Hr 50%” value (Candida krusei) was 4, the “BHBM 48 Hr 50%” value (Candida krusei) was 8 and the “BHBM 24 Hr 50%” value (Candida krusei; first listing r7-r78) was 4. For the same compound, the “BHBM 48 Hr 50%” value (Candida krusei; first listing r7-r78) was 8, the MIC (Candida krusei; Pichia kudriavzevii, read-out: MIC (moderately active)) was 8 to 16 µg/mL (≈ 24 to 48 µM) and the MIC range (Candida krusei; QC, Fungus Testing Lab) was 8 µg/mL (≈ 24 µM). For the same compound, the “intracellular replication of C. neoformans” value [4] was “significantly decrease the intracellular replication”, the “in vitro activity of Sld8” value (Sld8) was “does not inhibit” and the “synthesis of GlcCer” value [5] was “inhibited in a dose dependent manner”. For the same compound, the MIC range (Candida glabrata; 10 Fungus Testing Lab strains) was 0.125 to 2 µg/mL, the MIC (Candida glabrata; Nakaseomyces glabratus, read-out: MIC (moderately active)) was 8 to 16 µg/mL (≈ 24 to 48 µM) and the zone of inhibition (E. coli DH5α) was “No zone of inhibition”. The “in vitro activity” value (Candida albicans) was “not active”, the MIC range (Candida albicans; 3 Fungus Testing Lab strains) was greater than 32 µg/mL and the MIC range (Candida albicans; 5 MDP Lab strains) was greater than 32 µg/mL. The “in vitro activity” value (Cryptococcus gattii) was “good in vitro activity”, the MIC range (Cryptococcus gattii; 3 MDP Lab strains) was 0.5 to 1 µg/mL and the MIC range (Cryptococcus gattii; 10 Fungus Testing Lab strains) was 0.5 to 2 µg/mL. The “BHBM 72 Hr 50%” value (Cryptococcus gattii; MIC, FTL strains) was 16 and >16 and 8, the “liver Aspartate aminotransferase (AST)” value ([6]; 1.2 mg/kg/day intraperitoneally for 60 days) was 125±75 U/L and the “other blood parameters for liver and kidney function” value ([6]; 60 days) was “normal”. For the same compound, the “histological analysis of organs vs untreated uninfected mice” value ([6]; lungs, brains, kidney, spleen, liver, 60 days) was “no difference”, the “appearance, weight, physical activity and behavior” value ([6]; treated daily for 60 days) was “appeared normal” and the “tissue distribution, brain” value (Pharmacokinetics of BHBM) was “found in the brain tissue”. For the same compound, the “incubation required to kill about 50% of the cells” value (C. neoformans) was “at least 72 hours”, the type of killing (C. neoformans; time-kill assay) was “concentration-dependent killing” and the mice alive (Candida albicans SC-5314; 1.2 mg/kg/day intraperitoneally, after 21 days of infection) was 62.5%. The “clearance of infection (tissue burden)” value (Candida albicans SC-5314; day 21, surviving treated mice) was “able to clear C. albicans infection” and the “inhibition of the synthesis of GlcCer” value [7] was “significantly inhibit the synthesis of GlcCer”.
